# From patent US6667307B2, “Sulfonylalkanoylamino hydroxyethylamino sulfonamide retroviral protease inhibitors” (G.D. Searle & Co., priority 1995, dated 2003)
# Tests used:
# HIV protease = target: T1, HIV protease (Human immunodeficiency virus type 1 group M subtype B, UniProt P04585); assay: HIV protease enzyme assay (fluorescence, peptide substrate); type: biochemical; details: HIV protease 12.3 nanomolar, substrate 80 μM, pH 6.4, ambient temperature
# T1 construct: final enzyme concentration of 12.3 nanomolar, based on a molecular weight of 10,780
# Text: The compounds of the present invention are effective HIV protease inhibitors. Utilizing an enzyme assay as described below, the compounds set forth in the examples herein disclosed inhibited the HIV enzyme. The preferred compounds of the present invention and their calculated IC50 (inhibiting concentration 50%, i.e., the concentration at which the inhibitor compound reduces enzyme activity by 50%) values are shown in Table 9. The enzyme method is described below. The substrate is 2-Ile-Nle-Phe(p-NO2)-Gln-ArgNH2. The positive control is MVT-101 (Miller, M. et al, Science, 2, 1149 (1989)) The assay conditions are as follows:
# 20 mM sodium phosphate, pH 6.4
# The above described substrate is dissolved in DMSO, then diluted 10 fold in assay buffer. Final substrate concentration in the assay is 80 μM. HIV protease is diluted in the assay buffer to a final enzyme concentration of 12.3 nanomolar, based on a molecular weight of 10,780.
# The final concentration of DMSO is 14% and the final concentration of glycerol is 18%. The test compound is dissolved in DMSO and diluted in DMSO to 10× the test concentration; 10 μl of the enzyme preparation is added, the materials mixed and then the mixture is incubated at ambient temperature for 15 minutes. The enzyme reaction is initiated by the addition of 40 μl of substrate. The increase in fluorescence is monitored at 4 time points (0, 8, 16 and 24 minutes) at ambient temperature. Each assay is carried out in duplicate wells.
# HIV-1 in CEM cells = assay: CEM cell assay: HIV inhibition in acutely infected cells (tetrazolium/MTT colorimetric); type: cell-based; details: Human immunodeficiency virus 1, CCRF-CEM, 168 h, CEM cells acutely infected with HIV-1, 7 days, MTT readout
# Protocol: The effectiveness of various compounds were determined in the above-described enzyme assay and in a CEM cell assay. The HIV inhibition assay method of acutely infected cell infected cells is an automated tetrazolium based colorimetric assay essentially that reported by Pauwles et al, J. Virol. Methods, 20 ≡, 309-321 (1988). Assays were performed in 96-well tissue culture plates. CEM cells, a CD4^+ cell line. were grown in RPMI-1640 medium (Gibco) supplemented with a 10% fetal calf serum and were then treated with polybrene (2 μg/ml). An 80 μl volume of medium containing 1×10^4 cells was dispensed into each well of the tissue culture plate. To each well was added a 100 μl volume of test compound dissolved in tissue culture medium (or medium without test compound as a control) to achieve the desired final concentration and the cells were incubated at 37° C. for 1 hour. A frozen culture of HIV-1 was diluted in culture medium to a concentration of 5×10^4 TCID50 per ml (TCID50=the dose of virus that infects 50% of cells in tissue culture), and a 20 μL volume of the virus sample (containing 1000 TCID50 of virus) was added to wells containing test compound and to wells containing only medium (infected control cells). Several wells received culture medium without virus (uninfected control cells). Likewise, the intrinsic toxicity of the test compound was determined by adding medium without virus to several wells containing test compound. In summary, the tissue culture plates contained the following experiments: [table] In experiments 2 and 4 the final concentrations of test compounds were 1, 10, 100 and 500 μg/ml. Either azidothymidine (AZT) or dideoxyinosine (ddI) was included as a positive drug control. […] DMSO was added to all control wells at an appropriate concentration. Following the addition of virus, cells were incubated at 37° C. in a humidified, 5% CO2 atmosphere for 7 days. Test compounds could be added on days 0, 2 and 5 if desired. On day 7, post-infection, the cells in each well were resuspended and a 100 μl sample of each cell suspension was removed for assay. A 20 μL volume of a 5 mg/ml solution of 3-(4,5-dimethylthiazol-2-yl)-2,5-diphenyltetrazolium bromide (MTT) was added to each 100 μL cell suspension, and the cells were incubated for 4 hours at […] in a 5% CO2 environment. […] To each sample was added 100 μl of 10% sodium dodecylsulfate in 0.01 N HCl to lyse the cells, and samples were incubated overnight. The absorbance at 590 nm was determined for each sample using a Molecular Devices microplate reader. Absorbance values for each set of wells is compared to assess viral control infection, uninfected control cell response as well as test compound by cytotoxicity and antiviral efficacy.
SMILES,IC50 (HIV protease) [nM],EC50 (HIV-1 in CEM cells) [nM],melting point [°C]
"CC(C)CN(C[C@@H](O)[C@H](Cc1ccccc1)NC(=O)[C@H](C)C[S+](C)[O-])S(=O)(=O)c1ccc2c(c1)OCO2 (single isomer, unassigned) [Entry 6]",7,–,–
CC(C)CN(C[C@@H](O)[C@H](Cc1ccccc1)NC(=O)[C@H](C)CS(C)(=O)=O)S(=O)(=O)c1ccc2c(c1)OCO2 [Entry 1],2,20,–
CC(C)CN(C[C@@H](O)[C@H](Cc1ccccc1)NC(=O)[C@H](C)CS(C)(=O)=O)S(=O)(=O)c1ccc2c(c1)CCO2 [Entry 2],2,28,–
CC(C)CN(C[C@@H](O)[C@H](Cc1ccccc1)NC(=O)[C@H](C)CS(C)(=O)=O)S(=O)(=O)c1ccc2ncsc2c1 [Entry 3],3,26,–
CC(C)CN(C[C@@H](O)[C@H](Cc1ccccc1)NC(=O)[C@H](C)CS(C)(=O)=O)S(=O)(=O)c1ccc2c(c1)OCCO2 [Entry 4],2,12,–
CC(C)CN(C[C@@H](O)[C@H](Cc1ccccc1)NC(=O)[C@H](C)C[S+](C)[O-])S(=O)(=O)c1ccc2c(c1)OCO2 (stereo partly drawn) [Entry 5],2,52,–
"CC(C)CN(C[C@@H](O)[C@H](Cc1ccccc1)NC(=O)[C@H](C)CS(C)(=O)=O)S(=O)(=O)c1ccc2c(c1)OCO2 [Example 47, N-[2R-hydroxy-3-[(2-methylpropyl)[(1,3-benzodioxol-5-yl)sulfonyl]amino]-1S-(phenylmethyl)propyl]-2S-methyl-3-(methylsulfonyl)propanamide]",–,–,131.8 to 133.8
